Reference: the supplement of paper PMC8617591

How the values were obtained:
[1] = tested on: Mycobacterium tuberculosis Erdman (autoluminescent); assay: total FIC50 (Loewe) at 50% inhibition, three-drug combination (log2); higher = more antagonistic
Protocol: (§1)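 DiaMOND equipotent three-drug combination dose responses (10 doses, 1.5- or 2-fold spacing, centred on IC90) against autoluminescent M. tuberculosis Erdman in 8 in vitro models. Read-out is OD600, or luminescence for the intracellular and dormancy models, normalised to untreated wells. Hill-fit Einf, AUC25 and GRinf are potency metrics; FIC50 and FIC90 are total Loewe fractional inhibitory concentrations as log2 (negative = synergy).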

[2] = tested on: Mycobacterium tuberculosis Erdman (autoluminescent); assay: AUC25, normalised area under dose response up to IC25 (three-drug combination) (fraction (0-1)); higher = more potent at low dose
Protocol: as §1

[3] = tested on: Mycobacterium tuberculosis Erdman (autoluminescent); assay: Einf, fitted maximum growth inhibition of three-drug combination (fraction); higher = stronger maximal inhibition
Protocol: as §1

[4] = tested on: Mycobacterium tuberculosis Erdman (autoluminescent); assay: GRinf, maximum normalised growth rate inhibition (three-drug combination) (unitless (-1 to 1)); higher = less effect (negative = killing)
Protocol: as §1

[5] = tested on: Mycobacterium tuberculosis Erdman (autoluminescent); assay: total FIC90 (Loewe) at 90% inhibition, three-drug combination (log2); higher = more antagonistic
Protocol: as §1

O=[N+]([O-])c1cn2c(n1)OC[C@@H](OCc1ccc(OC(F)(F)F)cc1)C2 [pretomanid] + CO[C@H]1/C=C/O[C@@]2(C)Oc3c(C)c(O)c4c(O)c(c(/C=N/N5CCN(C6CCCC6)CC5)c(O)c4c3C2=O)NC(=O)/C(C)=C\C=C\[C@H](C)[C@H](O)[C@@H](C)[C@@H](O)[C@@H](C)[C@H](OC(C)=O)[C@@H]1C [rifapentine] + CO[C@H]1/C=C/O[C@@]2(C)Oc3c(C)c(O)c4c(O)c(c(/C=N/N5CCN(C)CC5)c(O)c4c3C2=O)NC(=O)/C(C)=C\C=C\[C@H](C)[C@H](O)[C@@H](C)[C@@H](O)[C@@H](C)[C@H](OC(C)=O)[C@@H]1C [rifampicin]
Settings	AUC25, [2]	Einf, [3]	GRinf, [4]	total FIC50, [1]	total FIC90, [5]
in vitro model: acidic pH 5.7, time point: constant (~7 days, model-specific)	0.0846	0.906	-0.198	0.583	–
in vitro model: acidic pH 5.7, time point: terminal (~4-5 doublings, model-specific)	0.0433	0.982	-0.177	0.863	0.271
in vitro model: intracellular J774, time point: constant = terminal	–	0.998	-0.321	–	0.0281

Settings	AUC25, [2]	Einf, [3]	GRinf, [4]	total FIC50, [1]	total FIC90, [5]
in vitro model: butyrate, time point: constant (~7 days, model-specific)	0.0997	0.913	0.0188	0.122	-0.618
in vitro model: butyrate, time point: terminal (~4-5 doublings, model-specific)	0.0845	0.963	-0.00218	-0.0327	-0.0222
in vitro model: cholesterol 0.05 mM, time point: constant (~7 days, model-specific)	0.12	0.706	-0.115	0.545	–
in vitro model: cholesterol 0.05 mM, time point: terminal (~4-5 doublings, model-specific)	0.0882	0.891	-0.0855	0.37	0.821
in vitro model: cholesterol-high 0.2 mM, time point: constant (~7 days, model-specific)	0.0723	0.899	-0.242	0.542	0.699
in vitro model: cholesterol-high 0.2 mM, time point: terminal (~4-5 doublings, model-specific)	0.0602	0.992	-0.654	0.62	0.433
in vitro model: dormancy (butyrate + nitrate, low O2), time point: constant (~7 days, model-specific)	0.0773	0.885	0.156	0.534	0.288
in vitro model: dormancy (butyrate + nitrate, low O2), time point: terminal (~4-5 doublings, model-specific)	0.0339	0.968	-0.0787	0.206	0.101
in vitro model: standard 7H9 glycerol, time point: constant = terminal	0.0607	0.906	0.057	0.0183	–
in vitro model: valerate, time point: constant (~7 days, model-specific)	0.0681	0.866	0.0606	0.168	–
in vitro model: valerate, time point: terminal (~4-5 doublings, model-specific)	0.0473	0.937	0.0285	0.389	0.0371

CC[C@@H](CO)NCCN[C@@H](CC)CO [ethambutol] + CC(=O)NC[C@H]1CN(c2ccc(N3CCOCC3)c(F)c2)C(=O)O1 [linezolid] + CO[C@H]1/C=C/O[C@@]2(C)Oc3c(C)c(O)c4c(O)c(c(/C=N/N5CCN(C6CCCC6)CC5)c(O)c4c3C2=O)NC(=O)/C(C)=C\C=C\[C@H](C)[C@H](O)[C@@H](C)[C@@H](O)[C@@H](C)[C@H](OC(C)=O)[C@@H]1C [rifapentine]
Settings	AUC25, [2]	Einf, [3]	GRinf, [4]	total FIC50, [1]	total FIC90, [5]
in vitro model: acidic pH 5.7, time point: constant (~7 days, model-specific)	0.0936	0.872	-0.0867	0.452	–
in vitro model: acidic pH 5.7, time point: terminal (~4-5 doublings, model-specific)	0.0542	0.967	-0.0664	1.01	0.595
in vitro model: intracellular J774, time point: constant = terminal	–	0.962	-0.261	–	-1.64

Settings	AUC25, [2]	Einf, [3]	GRinf, [4]	total FIC50, [1]	total FIC90, [5]
in vitro model: butyrate, time point: constant (~7 days, model-specific)	0.0551	0.886	0.0937	0.371	–
in vitro model: butyrate, time point: terminal (~4-5 doublings, model-specific)	0.0436	0.94	0.0645	0.251	-0.559
in vitro model: cholesterol 0.05 mM, time point: constant (~7 days, model-specific)	0.146	0.726	-0.109	-0.662	–
in vitro model: cholesterol 0.05 mM, time point: terminal (~4-5 doublings, model-specific)	0.154	0.936	-0.279	-1.58	–
in vitro model: cholesterol-high 0.2 mM, time point: constant (~7 days, model-specific)	0.102	0.996	-0.732	0.505	–
in vitro model: cholesterol-high 0.2 mM, time point: terminal (~4-5 doublings, model-specific)	0.103	1	-0.843	0.495	1.02
in vitro model: dormancy (butyrate + nitrate, low O2), time point: constant (~7 days, model-specific)	0.124	0.869	0.279	0.075	–
in vitro model: dormancy (butyrate + nitrate, low O2), time point: terminal (~4-5 doublings, model-specific)	0.131	0.996	-0.349	-0.164	1.09
in vitro model: standard 7H9 glycerol, time point: constant = terminal	0.0503	0.887	0.155	0.486	–
in vitro model: valerate, time point: constant (~7 days, model-specific)	0.0575	0.828	0.0988	0.319	–
in vitro model: valerate, time point: terminal (~4-5 doublings, model-specific)	0.0307	0.917	0.0733	0.429	–

CC[C@@H](CO)NCCN[C@@H](CC)CO [ethambutol] + NNC(=O)c1ccncc1 [isoniazid] + NC(=O)c1cnccn1 [pyrazinamide]
Settings	AUC25, [2]	Einf, [3]	GRinf, [4]	total FIC50, [1]	total FIC90, [5]
in vitro model: acidic pH 5.7, time point: constant (~7 days, model-specific)	0.0856	0.755	-0.322	0.219	–
in vitro model: acidic pH 5.7, time point: terminal (~4-5 doublings, model-specific)	0.076	0.953	-0.269	0.788	-0.0381
in vitro model: intracellular J774, time point: constant = terminal	–	0.988	-0.458	–	0.0195

Settings	AUC25, [2]	Einf, [3]	GRinf, [4]	total FIC50, [1]	total FIC90, [5]
in vitro model: butyrate, time point: constant (~7 days, model-specific)	0.0862	0.936	-0.0472	0.362	–
in vitro model: butyrate, time point: terminal (~4-5 doublings, model-specific)	0.0571	0.956	0.000899	0.43	0.0924
in vitro model: cholesterol 0.05 mM, time point: constant (~7 days, model-specific)	0.115	0.804	-0.282	–	–
in vitro model: cholesterol 0.05 mM, time point: terminal (~4-5 doublings, model-specific)	0.119	0.953	-0.377	0.635	–
in vitro model: cholesterol-high 0.2 mM, time point: constant (~7 days, model-specific)	0.0628	0.921	-0.27	0.837	–
in vitro model: cholesterol-high 0.2 mM, time point: terminal (~4-5 doublings, model-specific)	0.0569	1	-0.8	0.879	0.821
in vitro model: dormancy (butyrate + nitrate, low O2), time point: constant (~7 days, model-specific)	0.0979	0.822	0.394	-0.294	–
in vitro model: dormancy (butyrate + nitrate, low O2), time point: terminal (~4-5 doublings, model-specific)	0.104	0.972	-0.0582	0.22	1.09
in vitro model: standard 7H9 glycerol, time point: constant = terminal	0.063	0.862	0.233	0.587	–
in vitro model: valerate, time point: constant (~7 days, model-specific)	0.069	0.819	0.124	0.411	–
in vitro model: valerate, time point: terminal (~4-5 doublings, model-specific)	0.0469	0.898	0.113	0.582	0.569
